Several values for one entry are separate records, joined by “and”; a condition that tells them apart may be missing. Identical values can stand only once. Entries after “also recorded” stand apart in the source; their conditions may differ.
Legend:
Assay type in all cases: cell-based
H-9 cells = experiment: Cytoxicity on H-9 cells (drug inhibition, cell count); conditions: for H-9 Mean (drug inhibition): Table 4 summary; for % Inhibition Mean / Cells (×10^4) Mean / % Inhibition / Cells (×10^4): Exp. Dec. 05 to Dec. 09, 2005; for % Inhibition / Cells (×10^4): single replicates
From the text: (§1) The purified and identified analogs were subjected to in vitro biological testing. […] These three congeners were further evaluated in H9 and PC3 cells. AZT was employed as a positive control in all of these experiments.

MCF-7 cells = experiment: Cytoxicity on MCF-7 cells (drug inhibition, cell count); design: Drug Inhibition on MCF-7 Cells / MCF-7 Mean (drug inhibition) / Drug inhibition on MCF-7 Cells Mean: unit not given here; conditions: MCF-7 cells; for Drug Inhibition on MCF-7 Cells: Table 8 summary; for % Inhibition Mean / Cells (×10^4) Mean / % Inhibition / Cells (×10^4): Exp. Nov. 14 to Nov. 18, 2005; for % Inhibition / Cells (×10^4): single replicates
From the text: as §1

PC-3 cells = experiment: Cytoxicity on PC-3 cells (drug inhibition, cell count); conditions: for Drug Inhibition on PC-3 cells: Table 7; for % Inhibition Mean / Cells (×10^4) Mean / % Inhibition / Cells (×10^4): Exp. Nov. 11 to Nov. 17, 2005; for % Inhibition / Cells (×10^4): single replicates
From the text: The purified and identified analogs were subjected to in vitro biological testing.

## COc1ccc(C=CC(=O)c2cc(Br)cc(Br)c2O)cc1OC [CHBr 2M]
H-9 cells; 1 μg/ml
  H-9 Mean (drug inhibition): 5.64
  % Inhibition Mean: 5.64%
  Cells (×10^4) Mean: 47.42 ×10^4
  % Inhibition: 9.45% and 1.49% and 5.97%
  Cells (×10^4): 45.5 ×10^4 and 49.5 ×10^4 and 47.3 ×10^4
H-9 cells; 5 μg/ml
  H-9 Mean (drug inhibition): 49.59
  % Inhibition Mean: 49.59%
  Cells (×10^4) Mean: 25.33 ×10^4
  % Inhibition: 49.25% and 50.76% and 48.76%
  Cells (×10^4): 25.5 ×10^4 and 24.8 ×10^4 and 25.8 ×10^4
H-9 cells; 10 μg/ml
  H-9 Mean (drug inhibition): 65.01
  % Inhibition Mean: 65.01%
  Cells (×10^4) Mean: 17.58 ×10^4
  % Inhibition: 63.68% and 67.66% and 63.88%
  Cells (×10^4): 18.3 ×10^4 (2×) and 16.3 ×10^4
H-9 cells; 50 μg/ml
  H-9 Mean (drug inhibition): 76.95
  % Inhibition Mean: 76.95%
  Cells (×10^4) Mean: 11.58 ×10^4
  % Inhibition: 76.62% and 77.11%
  Cells (×10^4): 11.8 ×10^4 and 11.5 ×10^4 (2×)
H-9 cells; same conditions as AZT
  inhibitory activity compared to AZT: much superior inhibitory activities; also recorded: as good or somewhat better
MCF-7 cells
  response to MCF-7 cells in the different drug concentrations: good activities
MCF-7 cells; 1 μg/ml
  Drug Inhibition on MCF-7 Cells: 15.13
  % Inhibition Mean: 15.13%
  Cells (×10^4) Mean: 49.08 ×10^4
  % Inhibition: 15.71% and 10.95% and 18.73%
  Cells (×10^4): 48.6 ×10^4 and 51.5 ×10^4 and 47.0 ×10^4
MCF-7 cells; 5 μg/ml
  Drug Inhibition on MCF-7 Cells: 54.61
  % Inhibition Mean: 54.61%
  Cells (×10^4) Mean: 26.25 ×10^4
  % Inhibition: 53.31% and 56.34% and 54.18%
  Cells (×10^4): 27.0 ×10^4 and 25.3 ×10^4 and 26.5 ×10^4
MCF-7 cells; 10 μg/ml
  Drug Inhibition on MCF-7 Cells: 86.31
  % Inhibition Mean: 86.31%
  Cells (×10^4) Mean: 7.92 ×10^4
  % Inhibition: 87.46% and 84.44% and 87.03%
  Cells (×10^4): 7.3 ×10^4 and 9.0 ×10^4 and 7.5 ×10^4
MCF-7 cells; 50 μg/ml
  Drug Inhibition on MCF-7 Cells: 98.709
  % Inhibition Mean: 98.70%
  Cells (×10^4) Mean: 0.75 ×10^4
  % Inhibition: 98.70% and 98.27% and 99.14%
  Cells (×10^4): 0.8 ×10^4 and 1.0 ×10^4 and 0.5 ×10^4
MCF-7 cells; same conditions as AZT
  inhibitory activity compared to AZT: much superior inhibitory activities; also recorded: as good or somewhat better
PC-3 cells; 1 μg/ml
  Drug Inhibition on PC-3 cells: 47.1
  % Inhibition Mean: 27.64%
  Cells (×10^4) Mean: 70.92 ×10^4
  % Inhibition: 25.26% and 26.53% and 31.12%
  Cells (×10^4): 73.3 ×10^4 and 72.0 ×10^4 and 67.5 ×10^4
PC-3 cells; 5 μg/ml
  Drug Inhibition on PC-3 cells: 65.88
  % Inhibition Mean: 27.72%
  Cells (×10^4) Mean: 70.83 ×10^4
  Cells (×10^4): 75.5 ×10^4 and 68.0 ×10^4 and 69.0 ×10^4
PC-3 cells; 10 μg/ml
  Drug Inhibition on PC-3 cells: 78.04
  % Inhibition Mean: 26.28%
  Cells (×10^4) Mean: 72.25 ×10^4
PC-3 cells; 50 μg/ml
  Drug Inhibition on PC-3 cells: 89.50
  % Inhibition Mean: 42.86%
  Cells (×10^4) Mean: 56.00 ×10^4
  % Inhibition: 41.33% and 45.92%
  Cells (×10^4): 57.5 ×10^4 (2×) and 53.0 ×10^4
PC-3 cells; same conditions as AZT
  inhibitory activity compared to AZT: much superior inhibitory activities; also recorded: as good or somewhat better

Source: patent publication US8314143B2, “Synthetic flavonoids and pharmaceutical compositions and therapeutic methods of treatment of HIV infection and other pathologies” (Florida A&M University, priority 2006, dated 2012)
